Columns and labels:
Aminopeptidase N = biological target: T1, Aminopeptidase N (Sus scrofa, UniProt P15145); experiment: Inhibition of pig kidney microsome aminopeptidase N by UV-visible spectrophotometer
T1 sequence (P15145 whole entry): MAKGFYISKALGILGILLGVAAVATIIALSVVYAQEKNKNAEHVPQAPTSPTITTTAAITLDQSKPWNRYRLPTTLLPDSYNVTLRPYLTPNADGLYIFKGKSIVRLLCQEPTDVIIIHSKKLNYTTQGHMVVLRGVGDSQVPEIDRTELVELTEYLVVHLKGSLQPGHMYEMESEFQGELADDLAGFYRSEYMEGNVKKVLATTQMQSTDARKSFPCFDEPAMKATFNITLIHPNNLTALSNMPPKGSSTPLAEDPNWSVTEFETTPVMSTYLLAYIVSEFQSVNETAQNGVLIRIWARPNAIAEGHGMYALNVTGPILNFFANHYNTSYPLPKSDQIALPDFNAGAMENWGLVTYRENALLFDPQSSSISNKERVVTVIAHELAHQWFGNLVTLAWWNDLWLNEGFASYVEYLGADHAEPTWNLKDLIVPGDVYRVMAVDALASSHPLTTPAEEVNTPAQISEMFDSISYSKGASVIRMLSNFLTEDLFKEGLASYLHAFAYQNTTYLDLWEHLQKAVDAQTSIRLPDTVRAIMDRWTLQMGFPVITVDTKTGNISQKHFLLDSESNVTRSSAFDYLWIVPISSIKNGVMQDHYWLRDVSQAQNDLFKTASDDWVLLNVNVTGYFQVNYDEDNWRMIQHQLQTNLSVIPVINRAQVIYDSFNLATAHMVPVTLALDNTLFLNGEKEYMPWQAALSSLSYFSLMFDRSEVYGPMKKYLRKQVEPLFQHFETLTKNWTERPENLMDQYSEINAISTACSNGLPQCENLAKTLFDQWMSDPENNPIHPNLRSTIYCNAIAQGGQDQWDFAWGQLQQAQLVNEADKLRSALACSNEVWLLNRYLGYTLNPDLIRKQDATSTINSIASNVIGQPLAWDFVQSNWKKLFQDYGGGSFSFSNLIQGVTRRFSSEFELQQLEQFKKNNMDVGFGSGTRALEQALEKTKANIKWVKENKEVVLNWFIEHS

[1] = biological target: 72 kDa type IV collagenase (Homo sapiens, UniProt P08253); experiment: Inhibition of MMP2
Sequence of 72 kDa type IV collagenase (P08253 whole entry): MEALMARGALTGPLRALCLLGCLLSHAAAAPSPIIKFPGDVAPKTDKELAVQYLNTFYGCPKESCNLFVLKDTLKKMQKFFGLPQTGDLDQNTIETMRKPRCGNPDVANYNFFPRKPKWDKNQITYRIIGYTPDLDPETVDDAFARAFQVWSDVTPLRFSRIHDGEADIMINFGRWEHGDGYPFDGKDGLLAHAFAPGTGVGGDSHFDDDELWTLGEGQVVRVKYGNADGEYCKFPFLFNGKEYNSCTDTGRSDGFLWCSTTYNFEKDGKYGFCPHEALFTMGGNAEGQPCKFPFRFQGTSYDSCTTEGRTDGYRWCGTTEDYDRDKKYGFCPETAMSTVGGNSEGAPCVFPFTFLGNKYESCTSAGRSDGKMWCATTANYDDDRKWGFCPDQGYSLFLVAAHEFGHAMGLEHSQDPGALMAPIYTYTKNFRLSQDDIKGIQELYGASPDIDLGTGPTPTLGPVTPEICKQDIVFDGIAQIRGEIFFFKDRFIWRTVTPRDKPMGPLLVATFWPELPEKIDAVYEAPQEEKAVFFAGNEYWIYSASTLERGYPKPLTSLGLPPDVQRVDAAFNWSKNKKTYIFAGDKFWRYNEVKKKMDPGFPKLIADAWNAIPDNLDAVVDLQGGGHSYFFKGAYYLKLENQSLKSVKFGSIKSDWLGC

HL-60 = experiment: Antiproliferative activity against human HL-60 cells after 48 hrs by MTT assay; format: functional, cell-based; conditions: HL-60, 48 h

| SMILES | IC50 (Aminopeptidase N) [µM] | IC50 [1] [µM] | IC50 (HL-60) [µM] |
| --- | --- | --- | --- |
| NCCC(=O)NC[C@H](N)Cc1ccccc1 | 409 | 11.2 | – |
| N[C@@H](CNC(=O)/C=C/c1ccc(O)c(O)c1)Cc1ccccc1 | 492 | 329 | – |
| NCCCCCC(=O)NC[C@H](N)Cc1ccccc1 | 164 | 99.7 | – |
| N[C@@H](CNC(=O)Cc1ccccc1Nc1c(Cl)cccc1Cl)Cc1ccccc1 | > 1000 | > 1000 | – |
| N[C@@H](CNC(=O)/C=C/c1ccccc1)Cc1ccccc1 | 596 | 211 | – |
| CC(C)[C@H](N)C(=O)NC[C@H](N)Cc1ccccc1 | 476 | 151 | – |
| N[C@@H](CNC(=O)[C@H](Cc1ccccc1)NC(=O)[C@@H](N)Cc1ccccc1)Cc1ccccc1 | 15.5 | 183 | 630 |
| N[C@@H](CNC(=O)c1cc([N+](=O)[O-])cc([N+](=O)[O-])c1)Cc1ccccc1 | 204 | 101 | – |
| NCCCC[C@H](N)C(=O)NC[C@H](N)Cc1ccccc1 | 164 | 99.7 | – |
| CSCC[C@H](N)C(=O)NC[C@H](N)Cc1ccccc1 | 119 | 112 | – |
| NCCC[C@H](N)C(=O)NC[C@H](N)Cc1ccccc1 | 50.5 | 219 | – |
| C[C@H](N)C(=O)NC[C@H](N)Cc1ccccc1 | > 1000 | 772 | – |
| NC(=O)CC[C@H](N)C(=O)NC[C@H](N)Cc1ccccc1 | > 1000 | 802 | – |
| N[C@@H](CNC(=O)[C@@H](N)CS)Cc1ccccc1 | 21.1 | 78.8 | 1090 |
| N[C@@H](CNC(=O)[C@@H](N)CO)Cc1ccccc1 | 33.7 | 202 | – |
| N[C@@H](CNC(=O)CCc1ccccc1)Cc1ccccc1 | 290 | 547 | – |
| N[C@@H](CNC(=O)CCCc1ccccc1)Cc1ccccc1 | > 1000 | 221 | – |
| NCC(=O)NC[C@H](N)Cc1ccccc1 | > 1000 | 23.5 | – |
| CC(C)C[C@H](N)C(=O)NC[C@H](N)Cc1ccccc1 | 142 | 170 | – |
| N[C@@H](CNC(=O)Cc1ccccc1)Cc1ccccc1 | > 1000 | 632 | – |
| CC(C)C[C@H](NC(=O)[C@@H](O)[C@H](N)Cc1ccccc1)C(=O)O [UBENIMEX] | – | 162 | – |

— ChEMBL document CHEMBL1151707, “Novel 3-phenylpropane-1,2-diamine derivates as inhibitors of aminopeptidase N (APN)” (Bioorg Med Chem, 2008)
